Data taken from patent EP4008330A1, “COMBINED INHIBITION OF AMINO ACID TRANSPORTERS FOR INHIBITING HUMAN PLASMACYTOID DENDRITIC CELL ACTIVITY DURING AUTOIMMUNITY” (Max-Planck-Gesellschaft zur Förderung der Wissenschaften …, priority 2020, dated 2022).

Legend:
pDC [1] = experiment: Live cells / cell death of isolated pDC (LIVE/DEAD stain); format: cell-based
Method: (§1) Cells were stimulated with 5 µM CpG-A ODN (ODN2216, InvivoGen) for times indicated.
(§2) Isolated pDC staining was performed in 0.5% BSA in PBS for 10 min at RT, dead cells were excluded with the LIVE/DEAD Fixable Near-IR or Aqua Dead Cell Stain Kits (Thermo scientific). Unspecific binding was blocked with FcR blocking reagent (Miltenyi). The following fluorochrome-conjugated Abs were used for intracellular staining: IFNα (Miltenyi, LT27:295), TNFα (BioLegend, clone Mab11), pS6(S235/236; CST, clone D57.2.2e), pSTAT5 (Y694; CST, clone C71E5). After surface staining, cells were fixed using Fixation/Permeabilization Kit (BD Bioscience) for 20 min at 4°C, and then additionally permeabilized in Perm/Wash solution for 30 min at 4°C, after which cells were incubated with antibodies against intracellular proteins, at previously determined antibody dilutions, for 30 min at RT. […] Cycloheximide (Sigma) at 100 µg/ml was used as a positive control for protein synthesis inhibition.

pDC [2] = experiment: Intracellular IFNα and TNFα production by CpG-A-stimulated isolated pDC (flow cytometry); format: cell-based, human
From the text: PBMC from buffy coats from healthy blood donors were isolated by density gradient centrifugation using SepMate tubes and Lymphoprep (both […] Technologies). pDC were negatively selected from PBMC using the plasmacytoid dendritic cell isolation kit II (Miltenyi Biotec). Buffy coats were kindly provided by the Institute for Transfusion Medicine and Gene Therapy, Medical Center - University of Freiburg (donor consent, anonymized). Skin samples of lupus patients were obtained through the biobank of the SFB829 (Z4 project) with informed consent from all the subjects and ethical approval obtained from the Ethics Committee at the University of Cologne (votes 12-163 and 19-1146). SLE PBMC were provided by ImmRheum biobank in Freiburg, a project that was approved by the local ethical committee (votes 507/16 and 624/14). All patients who provided blood to the biobank had provided written informed consent.
as §1
as §2, with “The following fluorochrome-conjugated monoclonal antibodies were used for staining cell surface markers: IL-3Ra (CD123) (Miltenyi Biotec, clone AC145), HLA-DR (BD Bioscience, clone G46-6), CD116 (BD Bioscience, clone hGMCSFR-M1), CD4 (Biolegend, clone A161A1). […] Isolated” for “Isolated”

pDC [3] = experiment: Combined kynurenine uptake and pS6 (S235/236) in pDC (double positive cells); format: cell-based, human
From the text: To confirm that functional System LAA transport is a prerequisite for mTORC1 activation in response to CpG-A, the effects of IL-3 and CpG-A were examined on combined measurements of kynurenine uptake, S6 (S235/236) phosphorylation and cytokine production.

SLC7A5 and SLC3A2 = SLC7A5 and SLC3A2 mRNA expression in pDC (PrimeFlow RNA); conditions: pDC in IL-3 and inhibitor o/n, then CpG-A 5h
mTORC1 = experiment: S6 (S235/236) phosphorylation in pDC by flow cytometry, as measure of mTORC1 activity; format: cell-based, human; conditions: pDC in IL-3 with inhibitor, stimulated with CpG-A; 20 nM RAP, 1µM AZD, BAR
Method: as §1, §2

[4] = biological target: T1, System LAA transporters SLC7A5 and SLC3A2 (Homo sapiens, UniProt Q01650); experiment: Kynurenine uptake by pDC (flow cytometry), System LAA transporter activity; format: cell-based
T1 construct: freshly isolated pDC from PBMC of healthy donors and SLE patients also expressed System LAA transporters SLC7A5 and SLC3A2; endogenous in cells; host or cells: Primary plasmacytoid dendritic cells isolated from PBMC of human donors
T1 sequence (Q01650 whole entry): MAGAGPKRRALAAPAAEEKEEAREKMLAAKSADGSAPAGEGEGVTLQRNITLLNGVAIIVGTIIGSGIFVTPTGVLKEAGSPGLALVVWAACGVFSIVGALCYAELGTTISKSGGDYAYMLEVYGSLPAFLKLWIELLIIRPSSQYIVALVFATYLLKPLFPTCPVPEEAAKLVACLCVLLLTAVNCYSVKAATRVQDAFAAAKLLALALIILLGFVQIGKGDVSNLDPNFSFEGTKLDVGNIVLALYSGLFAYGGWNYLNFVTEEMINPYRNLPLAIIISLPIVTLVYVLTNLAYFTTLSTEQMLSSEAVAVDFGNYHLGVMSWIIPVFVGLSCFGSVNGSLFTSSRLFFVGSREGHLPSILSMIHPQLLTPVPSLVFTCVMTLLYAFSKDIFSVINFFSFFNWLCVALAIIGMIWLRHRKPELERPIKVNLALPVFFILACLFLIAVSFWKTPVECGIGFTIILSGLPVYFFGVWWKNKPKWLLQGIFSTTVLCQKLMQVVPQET
T1 sequence (P08195 103-630 partner limits assumed): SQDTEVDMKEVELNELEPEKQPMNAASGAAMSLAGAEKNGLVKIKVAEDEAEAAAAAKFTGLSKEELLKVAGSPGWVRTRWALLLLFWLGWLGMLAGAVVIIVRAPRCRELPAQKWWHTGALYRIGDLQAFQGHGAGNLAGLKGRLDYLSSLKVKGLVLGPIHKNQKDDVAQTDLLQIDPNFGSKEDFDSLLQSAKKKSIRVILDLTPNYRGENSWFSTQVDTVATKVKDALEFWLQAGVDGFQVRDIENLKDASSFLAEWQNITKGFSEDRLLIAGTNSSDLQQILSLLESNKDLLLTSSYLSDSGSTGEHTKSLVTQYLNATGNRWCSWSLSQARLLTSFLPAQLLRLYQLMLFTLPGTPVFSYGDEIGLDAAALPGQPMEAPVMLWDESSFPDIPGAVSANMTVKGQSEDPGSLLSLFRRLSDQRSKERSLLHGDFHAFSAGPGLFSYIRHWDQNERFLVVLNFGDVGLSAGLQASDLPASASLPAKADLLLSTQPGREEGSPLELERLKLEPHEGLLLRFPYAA
Method: (§3) Briefly, stained cells were incubated in HBSS (Gibco) with 200 µM kynurenine (Sigma) for 4 min at 37°C.
To assess whether IL-3-induced expression of SLC7A5 and SLC3A2 allowed the assembly of a functional System LAA transporter, we used a flow cytometry-based assay that measures the ability of cells to take up kynurenine, a naturally fluorescing molecule that is transported into cells via SLC7A5; this can be used as a proxy measurement of large neutral amino acid (LNAA) uptake. […] Of interest, freshly isolated pDC from PBMC of healthy donors and SLE patients also expressed System LAA transporters SLC7A5 and SLC3A2 (Figure 5D) and furthermore pDC from healthy donors had the ability to take up kynurenine immediately ex vivo, a process that was blocked by BCH (Figure 5E).

STAT5 (Y694) = STAT5 (Y694) phosphorylation in pDC by flow cytometry; format: cell-based, human; conditions: IL-3-induced; pDC with inhibitor o/n
Method: as §1, §2

SLC7A11 = SLC7A11 mRNA expression in pDC (PrimeFlow RNA); format: cell-based, human; conditions: pDC in IL-3 and inhibitor o/n; for SLC7A11 and SLC7A5 mRNA expression (double positive cells): then CpG-A 5h (Figure 12B)
Method: as §1, §3

pDC [5] = experiment: Lactate levels in pDC culture medium (Cedex Bio Analyzer); format: cell-based, human; conditions: pDC in IL-3, CpG-A and inhibitor for 10 h
Method: as §1
Glucose and lactate were measured in cell culture supernatants using the Cedex Bio Analyzer (Roche) and data presented as mmol/L.

pDC [6] = experiment: De novo protein synthesis in pDC, incorporation of puromycin analogue (OPP); format: cell-based, human; conditions: pDC in IL-3, CpG-A for 10 h and inhibitor
[7] = pDC in IL-3 and inhibitor o/n, then CpG-A 5h, 20 nM RAP, 250 nM TOR, 10µM HPA, 1µM AZD, BAR, 5 µM ERA, 100 or 200 µM SAZ
[8] = pDC in IL-3 and inhibitor o/n, then CpG-A 5h, 20 nM RAP, 10µM HPA, 1µM AZD, BAR, 5 µM ERA, 100 or 200 µM SAZ
[9] = pDC in IL-3, CpG-A and inhibitors for 5h after o/n rest (Figure 4E), 10µM HPA, 1 µM oligomycin
[10] = cultured pDC +/- IL-3, +/- CpG-A, 200 µM kynurenine 4 min, 10 mM BCH at time of uptake

Structure (SMILES): CCS(=O)(=O)N1CC(CC#N)(n2cc(-c3ncnc4[nH]ccc34)cn2)C1 [BAR, baricitinib]
- live cells (cell death / cell survival) (pDC [1]; BAR 25 to 100 nM, alone or with SAZ, IL-3 o/n, then CpG-A 5h (Figure 14C)): increased cell death

Structure (SMILES): O=C(O)c1cc(/N=N/c2ccc(S(=O)(=O)Nc3ccccn3)cc2)ccc1O [Sulfasalazine, sulfasalazine]
- IFNα production (pDC [2]; [7]): inhibited
- TNFα production (pDC [2]; [8]): inhibited
- kynurenine uptake and pS6 (S235/236) expression (cells positive for both) (pDC [3]; pDC in IL-3 and inhibitor o/n, then CpG-A 5h): reductions

Structure (SMILES): CC[C@H]1/C=C/C=C/C[C@@H](C)[C@H](O)[C@@](C)(O)C(=O)[C@@H](C)[C@H](O)[C@@H](C)C(=O)[C@@H](C)[C@H](O)[C@@H](C)/C=C/C(=O)O[C@@H]2[C@H](C)[C@H](CC1)O[C@]1(CC[C@H](C)[C@H](C[C@@H](C)O)O1)[C@H]2C [OLI, oligomycin]
- IFNα production (pDC [2]; [9]): inhibited IFNα production to approximately the same extent as HPA
- TNFα production (pDC [2]; [9]): no effect

Structure (SMILES): Cc1cc(Nc2nc(N[C@@H](C)c3ncc(F)cn3)ncc2Cl)n[nH]1 [AZD, AZD1480]
- SLC7A5 and SLC3A2 mRNA expression (SLC7A5 and SLC3A2): significantly inhibited
- pS6 (S235/236) expression (mTORC1): reductions
- kynurenine uptake [4, 10]: reductions
- pSTAT5 (Y694) expression (STAT5 (Y694)): inhibited
- IFNα production (pDC [2]; [7]): lost and decrease
- TNFα production (pDC [2]; [8]): decrease
- IFNα production (pDC [2]; pDC maintained in GM-CSF and inhibitor o/n, then CpG-A 5h (Figure 8)): inhibited
- kynurenine uptake and pS6 (S235/236) expression (cells with high rates of kynurenine uptake and mTORC1 activity) (pDC [3]; pDC in GM-CSF and inhibitor o/n, then CpG-A 5h (Figure 8)): inhibited
- SLC7A11 and SLC7A5 mRNA expression (double positive cells) (SLC7A11): lost expression of both transporters

Structure (SMILES): NC1(C(=O)O)CC2CCC1C2 (centres unmarked) [BCH, 2-Aminobicyclo[2.2.1]heptane-2-carboxylic acid]
- kynurenine uptake [4, 10]: abrogated transport of kynurenine in all of the conditions
- kynurenine uptake ([4]; pDC from healthy donors immediately ex vivo, 10 mM BCH): blocked

Structure (SMILES): CC(C)[C@H]1CC[C@@]2(CO2)[C@H]2C(=O)OCC(C(=O)O)=C[C@H]12 [HPA, heptelidic (koningic) acid]
- lactate levels in medium (pDC [5]): reduced secreted lactate levels to below those in cultures of unstimulated pDC
- IFNα production (pDC [2]; [7]): reductions
- TNFα production (pDC [2]; [8]): reductions
- protein synthesis measured by incorporation of puromycin analogue (OPP) (pDC [6]): caused reductions in overall protein synthesis

Structure (SMILES): CCC(=O)N1CCN(c2ccc(-n3c(=O)ccc4cnc5ccc(-c6cnc7ccccc7c6)cc5c43)cc2C(F)(F)F)CC1 [TOR, torin1]
- lactate levels in medium (pDC [5]): decline in CpG-A-induced lactate release
- IFNα production (pDC [2]; [7]): similar, although less pronounced effect
- SLC7A11 mRNA expression (SLC7A11; then CpG-A 5h): inhibited
- SLC7A11 and SLC7A5 mRNA expression (double positive cells) (SLC7A11): similar, although less pronounced effect

Structure (SMILES): CCOc1ccccc1-n1c(C(C)N2CCN(C(=O)COc3ccc(Cl)cc3)CC2)nc2ccccc2c1=O (centres unmarked) [ERA, erastin]
- live cells (cell death) (pDC [1]): absence of appreciable cell death
